Measured values taken from ChEMBL document CHEMBL1201862, “PubChem BioAssay data set” (2004).
Calls of active or inactive are those of the source.

How the values were obtained:
H9c2 = assay: cells; assay type: functional, cell-based; conditions: Rattus norvegicus, H9c2, Myocardium;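 also: confirmatory concentration-response retest of ultra-high-throughput screening hits for modulation of myocardial damage; cell death induced by hydrogen peroxide oxidative stress; compound pretreatment for 60 min then peroxide exposure for 2 h; potency is for protecting the cells against peroxide damage rather than for killing them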
[1] = Luminescence Cell-Based Dose Confirmation HTS to Identify Activators of 5'UTR Stem-Loop Driven Alpha-Synuclein mRNA Translation in H4 Neuroglioblastoma Cells. [Related pubchem assays: 1829 (Project Summary), 1814 (Primary HTS)]; assay type: functional
H4 = assay: Luminescence Cell-Based Dose Response HTS to Identify Activators of 5'UTR Stem-Loop Driven Prion Protein mRNA Translation in H4 Neuroglioblastoma Cells. [Related pubchem assays: 1829 (Project Summary), 1814 (Primary HTS)]; assay type: functional; conditions: Homo sapiens
[2] = Luminescence Cell-Based Dose Response HTS to Identify Activators of Luciferase Translation or Activity in H4 […] Cells. [Related pubchem assays: 1829 (Project Summary), 1814 (Primary HTS)]; assay type: functional
[3] = target: T1, Corticotropin-releasing factor receptor 2/Corticotropin-releasing factor-binding protein (Homo sapiens, UniProt P24387+Q13324); assay: Dose Response confirmation of uHTS hits for small molecule antagonists of the CRF-binding protein and CRF-R2 receptor complex.; assay type: functional; conditions: read-out: IC50_Mean
T1 sequence (Q13324 whole entry): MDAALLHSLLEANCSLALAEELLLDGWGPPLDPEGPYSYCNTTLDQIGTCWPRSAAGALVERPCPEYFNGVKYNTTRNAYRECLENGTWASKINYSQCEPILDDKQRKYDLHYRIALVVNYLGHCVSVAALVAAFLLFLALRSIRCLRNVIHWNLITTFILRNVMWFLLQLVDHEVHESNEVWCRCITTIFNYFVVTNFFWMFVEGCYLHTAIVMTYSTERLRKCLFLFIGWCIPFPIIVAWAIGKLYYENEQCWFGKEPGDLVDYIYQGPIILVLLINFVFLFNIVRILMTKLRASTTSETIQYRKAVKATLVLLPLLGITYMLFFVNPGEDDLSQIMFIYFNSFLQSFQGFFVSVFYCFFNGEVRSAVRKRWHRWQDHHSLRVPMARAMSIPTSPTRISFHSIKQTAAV
T1 sequence (P24387 whole entry): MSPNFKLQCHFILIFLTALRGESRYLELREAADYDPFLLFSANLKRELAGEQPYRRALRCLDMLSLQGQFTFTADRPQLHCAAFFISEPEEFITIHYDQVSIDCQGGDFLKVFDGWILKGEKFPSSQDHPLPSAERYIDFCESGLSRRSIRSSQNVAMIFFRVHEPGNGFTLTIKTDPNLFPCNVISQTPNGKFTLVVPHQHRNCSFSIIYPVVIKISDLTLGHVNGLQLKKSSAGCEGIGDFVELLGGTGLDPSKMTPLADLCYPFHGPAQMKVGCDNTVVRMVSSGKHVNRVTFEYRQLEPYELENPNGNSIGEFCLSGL

[4] = target: T1, Corticotropin-releasing factor receptor 2/Corticotropin-releasing factor-binding protein; assay: activators of CRF receptor 2 with binding protein – uHTS hits, confirmation (AID 602473); assay type: functional; conditions: read-out: EC50_Mean
[5] = target: T2, Replicative DNA helicase DnaB (Mycobacterium tuberculosis, UniProt P9WMR3); assay: DnaB intein splicing inhibitors, dose response, biochemical, cell-free fluorescence (AID 449749); assay type: functional
T2 sequence (P9WMR3 whole entry): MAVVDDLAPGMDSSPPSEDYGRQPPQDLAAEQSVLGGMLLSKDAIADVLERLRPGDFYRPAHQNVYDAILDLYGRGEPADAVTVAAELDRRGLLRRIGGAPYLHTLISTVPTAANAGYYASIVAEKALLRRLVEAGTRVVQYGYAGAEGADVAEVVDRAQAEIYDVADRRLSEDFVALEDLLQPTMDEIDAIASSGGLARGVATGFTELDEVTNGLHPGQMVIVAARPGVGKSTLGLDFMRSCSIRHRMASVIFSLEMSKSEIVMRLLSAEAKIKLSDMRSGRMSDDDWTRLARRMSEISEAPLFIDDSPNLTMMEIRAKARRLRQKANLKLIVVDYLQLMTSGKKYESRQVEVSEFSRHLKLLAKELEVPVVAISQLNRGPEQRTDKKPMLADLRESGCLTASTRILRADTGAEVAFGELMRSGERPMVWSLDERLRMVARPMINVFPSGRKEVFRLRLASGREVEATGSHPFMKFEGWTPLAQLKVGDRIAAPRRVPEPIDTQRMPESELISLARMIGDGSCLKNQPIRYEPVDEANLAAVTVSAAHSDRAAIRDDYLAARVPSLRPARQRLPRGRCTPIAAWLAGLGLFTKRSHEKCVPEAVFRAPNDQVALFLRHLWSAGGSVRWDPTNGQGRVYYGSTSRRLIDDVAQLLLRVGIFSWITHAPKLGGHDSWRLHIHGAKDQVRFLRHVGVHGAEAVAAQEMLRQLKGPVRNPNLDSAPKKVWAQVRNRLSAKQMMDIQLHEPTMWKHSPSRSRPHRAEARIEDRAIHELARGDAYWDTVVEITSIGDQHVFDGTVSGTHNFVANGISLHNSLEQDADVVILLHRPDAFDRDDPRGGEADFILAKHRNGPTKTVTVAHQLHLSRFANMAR

Protein RecA = target: T3, Protein RecA (Mycobacterium tuberculosis, UniProt P9WHJ3); assay: Fluorescence Cell-Free Homogeneous Dose Retest to Identify Inhibitors of RecA-Intein Splicing Activity. [Related pubchem assays (depositor defined):AID2097, AID2223, AID489010, AID492950]; assay type: functional
T3 sequence (P9WHJ3 whole entry): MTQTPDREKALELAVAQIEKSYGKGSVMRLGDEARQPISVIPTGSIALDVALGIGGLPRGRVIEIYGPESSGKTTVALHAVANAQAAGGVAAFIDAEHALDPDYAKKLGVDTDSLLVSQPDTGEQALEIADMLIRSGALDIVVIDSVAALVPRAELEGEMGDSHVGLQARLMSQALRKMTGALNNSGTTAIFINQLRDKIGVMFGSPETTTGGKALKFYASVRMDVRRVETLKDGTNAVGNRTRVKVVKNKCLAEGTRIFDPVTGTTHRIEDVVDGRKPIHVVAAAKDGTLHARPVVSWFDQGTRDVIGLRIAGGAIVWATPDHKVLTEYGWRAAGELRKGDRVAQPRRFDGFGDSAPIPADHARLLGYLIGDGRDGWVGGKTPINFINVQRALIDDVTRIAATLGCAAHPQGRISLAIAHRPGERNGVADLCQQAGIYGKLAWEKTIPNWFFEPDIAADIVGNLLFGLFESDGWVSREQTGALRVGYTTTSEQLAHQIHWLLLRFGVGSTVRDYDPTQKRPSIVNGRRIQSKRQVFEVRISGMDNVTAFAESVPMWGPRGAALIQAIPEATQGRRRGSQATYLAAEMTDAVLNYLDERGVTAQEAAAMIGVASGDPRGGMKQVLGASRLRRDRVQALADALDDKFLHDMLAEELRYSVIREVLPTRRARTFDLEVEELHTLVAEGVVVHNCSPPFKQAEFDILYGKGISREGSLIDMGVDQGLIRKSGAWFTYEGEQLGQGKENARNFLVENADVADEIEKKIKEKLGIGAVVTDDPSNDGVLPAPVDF

[6] = Luminescence Cell-Based Dose Retest to Confirm Inhibitors of Cancer Stem Cells. [Related pubchem assays (depositor defined):AID2717, AID2721]; assay type: functional; conditions: Homo sapiens
[7] = target: T4, Heat shock factor protein 1 (Mus musculus, UniProt P38532); assay: HSF1 potentiators in luciferase reporter cells, confirmation, cell-based, NIH3T3, luminescence, dose retest (AID 435004); assay type: functional;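 also: stress induced by proteasome inhibitor MG132 added 30 min after compound; luciferase reporter driven by HSF1 response element in NIH3T3 cells; actives raise luminescence as potentiators of the MG132 stress response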
T4 sequence (P38532 whole entry): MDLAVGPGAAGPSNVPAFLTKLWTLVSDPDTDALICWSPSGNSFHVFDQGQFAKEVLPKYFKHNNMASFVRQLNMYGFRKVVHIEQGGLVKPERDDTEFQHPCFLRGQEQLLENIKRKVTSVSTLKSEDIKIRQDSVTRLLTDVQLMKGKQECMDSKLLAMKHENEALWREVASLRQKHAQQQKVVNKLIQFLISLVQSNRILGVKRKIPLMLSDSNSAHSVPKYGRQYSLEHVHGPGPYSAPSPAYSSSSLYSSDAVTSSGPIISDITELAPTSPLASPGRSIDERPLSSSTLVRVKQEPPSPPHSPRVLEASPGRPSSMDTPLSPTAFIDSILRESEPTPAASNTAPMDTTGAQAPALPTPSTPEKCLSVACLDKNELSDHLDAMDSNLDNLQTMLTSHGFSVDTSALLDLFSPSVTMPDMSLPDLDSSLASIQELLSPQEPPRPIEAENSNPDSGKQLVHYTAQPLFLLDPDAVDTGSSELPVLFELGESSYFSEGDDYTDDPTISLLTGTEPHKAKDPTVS

Cytochrome P450 2C9 = Cytochrome P450 2C9 (Homo sapiens, UniProt P11712)
Sequence of Cytochrome P450 2C9 (P11712 whole entry): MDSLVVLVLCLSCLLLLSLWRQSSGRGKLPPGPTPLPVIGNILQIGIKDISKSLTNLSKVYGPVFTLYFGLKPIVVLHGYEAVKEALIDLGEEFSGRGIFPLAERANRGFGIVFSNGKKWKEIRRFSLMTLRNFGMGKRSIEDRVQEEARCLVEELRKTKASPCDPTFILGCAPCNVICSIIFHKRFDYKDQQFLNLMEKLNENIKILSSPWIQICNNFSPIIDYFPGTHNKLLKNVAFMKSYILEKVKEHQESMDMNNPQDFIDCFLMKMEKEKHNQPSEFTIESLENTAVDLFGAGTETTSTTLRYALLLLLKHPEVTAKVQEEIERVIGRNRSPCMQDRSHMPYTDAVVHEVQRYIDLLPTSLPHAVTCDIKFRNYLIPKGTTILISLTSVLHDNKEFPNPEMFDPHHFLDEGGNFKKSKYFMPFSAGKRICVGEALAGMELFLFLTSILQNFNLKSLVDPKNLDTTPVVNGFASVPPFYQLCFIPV

Cytochrome P450 2C19 = Cytochrome P450 2C19 (Homo sapiens, UniProt P33261); assay: Cytochrome panel assay with activity outcomes. Panel member name: p450-cyp2c19 Compounds with AC50 equal or less than 10 uM are considered active; assay type: functional; conditions: read-out: AC50
Sequence of Cytochrome P450 2C19 (P33261 whole entry): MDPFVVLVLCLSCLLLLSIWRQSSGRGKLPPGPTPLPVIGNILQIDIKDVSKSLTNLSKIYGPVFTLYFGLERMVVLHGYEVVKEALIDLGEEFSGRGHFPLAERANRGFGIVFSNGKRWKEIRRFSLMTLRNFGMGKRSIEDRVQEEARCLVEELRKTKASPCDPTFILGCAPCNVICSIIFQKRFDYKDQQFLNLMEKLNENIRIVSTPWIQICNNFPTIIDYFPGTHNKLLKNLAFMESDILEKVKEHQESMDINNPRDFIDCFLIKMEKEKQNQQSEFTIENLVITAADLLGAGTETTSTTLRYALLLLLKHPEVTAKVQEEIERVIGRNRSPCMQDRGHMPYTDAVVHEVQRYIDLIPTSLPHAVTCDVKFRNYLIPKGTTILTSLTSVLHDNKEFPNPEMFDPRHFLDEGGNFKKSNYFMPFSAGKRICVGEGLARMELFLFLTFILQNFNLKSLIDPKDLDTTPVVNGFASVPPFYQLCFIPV

[8] = growth suppression of beta-catenin-knockout colon cells, dose response, cell-based, HCT116, human colon tumor (AID 1045); assay type: functional;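 also: HCT116 colon tumor cells with beta catenin knocked out; cells exposed to compound for 60 hours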
[9] = growth suppression of PTEN-null colon cells, dose response, cell-based, HCT116 PTEN knockout (AID 1047); assay type: functional;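 also: HCT116 colon tumor cells with PTEN knocked out; cells exposed to compound for 60 hours before readout; potency for loss of cell viability measured by luminescence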

COc1ccc(S(=O)(=O)N(CCCN2CCCC2=O)Cc2cc3cc(C)c(C)cc3nc2O)cc1
IC50 (H9c2): > 79 µM (inactive)

O=C(N/N=C/c1ccccn1)c1cc(C2CC2)nc2ccccc12
IC50 (H9c2): > 79 µM (inactive)

COc1ccc(/C=C2\SC(=S)N(Cc3cccnc3)C2=O)cc1C
EC50 [1]: 38 µM (active)
EC50 (H4): 20.1 µM (active)
EC50 [2]: 11.1 µM (active)

C=CCNc1nc(-c2ccc(OC)cc2OC)cs1
EC50 [1]: 0.287 µM (active)
EC50 (H4): 53.9 µM (active)
EC50 [2]: 26.8 µM (active)

O=C(COc1cccc(NC(=O)c2cccc([N+](=O)[O-])c2)c1)c1ccc(F)cc1
IC50 (H9c2): > 79 µM (inactive)

Cc1ccc(C(=O)COC(=O)CCN2C(=O)C3C4C=CC(C5CC45)C3C2=O)cc1 (stereo not drawn)
IC50 [3]: > 47.1 µM (inactive)
EC50 [4]: > 53 µM (inactive)

Cc1nn(-c2ccc(N3CCCCC3)nn2)c(C)c1CCC(=O)Nc1cccc(F)c1
EC50 [1]: 20.8 µM (active)
EC50 [2]: 2.66 µM (active)

CC1=C(C(=O)OCc2ccccc2)C(/C=C/c2ccccc2)N2C(=O)CCSC2=N1 (stereo not drawn)
IC50 [3]: > 47.1 µM (inactive)
EC50 [4]: > 53 µM (inactive)

CC1(NC(=O)CCc2nc(O)c3ccccc3n2)CCS(=O)(=O)C1 (stereo not drawn)
IC50 (H9c2): > 79 µM (inactive)

CCOC(=O)c1nnn(CC(=O)N2N=C(c3ccccc3)CC2c2ccccc2)c1C(=O)OCC (stereo not drawn)
IC50 [3]: > 47.1 µM (inactive)
EC50 [4]: > 53 µM (inactive)

C/C(=N/OCC(=O)Nc1ccccc1)c1cccs1
EC50 [1]: 13.4 µM (active)
EC50 (H4): 16.8 µM (active)
EC50 [2]: 26.4 µM (active)

COC(=O)c1c(C)[nH]c(C(=O)COc2ccc3ccc(=O)oc3c2)c1C
IC50 (H9c2): > 79 µM (inactive)

COc1ccc(OCc2cc(C(=O)N3CCCC(OC)C3)no2)c2ccccc12 (stereo not drawn)
AC50 [5]: 15 µM (active)
EC50 (Protein RecA): 3.9 µM (active)

O=C(Oc1ccccc1N1C(=O)CCC1=O)c1ccco1
AC50 [5]: 6.7 µM (active)
EC50 (Protein RecA): 14.8 µM (active)

CCSc1nnc(N)s1
IC50 (H9c2): > 79 µM (inactive)

COCCn1c(-c2ccsc2)nc2c1c(=O)[nH]c(=O)n2CC(C)C
IC50 [3]: > 47.1 µM (inactive)
EC50 [4]: > 53 µM (inactive)

COC(=O)c1ccc(Cc2ccccc2)o1
IC50 [3]: > 47.1 µM (inactive)
EC50 [4]: > 53 µM (inactive)

CCCCNc1nc(CC)c2c(c1C#N)CCCC2
IC50 [3]: > 47.1 µM (inactive)
EC50 [4]: > 53 µM (inactive)

CC(=O)C12CC(C)=C(C)CC1CC1C3CCC4=CC(=O)CCC4(C)C3CCC12C (stereo not drawn)
AC50 [5]: 3.05 µM (active)
AC50 [6]: 5.78 µM (active)
EC50 (Protein RecA): 289 µM (inconclusive)

ONc1cccnc1-n1nc(C(F)(F)F)cc1C(F)(F)F
EC50 (Protein RecA): > 380 µM (inconclusive)

CCOC(=O)c1c(C)sc2c1N(C(=O)CCl)c1cc(Cl)ccc1S2
AC50 [5]: 3.1 µM (active)
AC50 [6]: 2.22 µM (active)
EC50 (Protein RecA): 0.506 µM (active)

COC(=O)c1ccc2nc3c(cc2c1)[C@@H]1CCN2C(=O)CCC[C@H](C3)[C@H]12
IC50 [3]: > 47.1 µM (inactive)
EC50 [4]: > 53 µM (inactive)

Oc1nc(N2CCN(c3ccccc3)CC2)nc2c1CCC2
IC50 (H9c2): 54.4 µM (inactive)
EC50 [7]: > 260 µM (inactive)

O=[N+]([O-])C(/C=C(\Cl)[N+](=O)[O-])=C1N(Cc2ccc(Cl)nc2)CCN1Cc1ccc(Cl)nc1
AC50 [5]: 11.4 µM (active)
AC50 (Cytochrome P450 2C9): 12.6 µM (inconclusive)
AC50 (Cytochrome P450 2C19): 31.6 µM (inconclusive)
EC50 (Protein RecA): 8.49 µM (active)

CC(C)(C)c1nn(-c2ccccc2)c2nc(O)c(CNCc3ccco3)cc12
EC50 [8]: 9.2 µM (active)
EC50 [9]: 7.45 µM (active)
IC50 (H9c2): > 79 µM (inactive)

Cc1c(C=O)c2ccccn2c1C(=O)c1ccc(Cl)c([N+](=O)[O-])c1
IC50 (H9c2): > 79 µM (inactive)

CCOC(=O)c1cccc(NS(=O)(=O)Cc2ccccc2)c1
IC50 [3]: > 47.1 µM (inactive)
EC50 [4]: > 53 µM (inactive)

CC1CCCC(C)N1C(=O)COC(=O)c1cccs1 (stereo not drawn)
IC50 [3]: > 47.1 µM (inactive)
EC50 [4]: > 53 µM (inactive)

O=C(O)c1nn(CC(=O)N2CCN(c3ccccc3)CC2)c(=O)c2ccccc12
IC50 (H9c2): 31 µM (inactive)

O=c1cc(-c2ccc([N+](=O)[O-])cc2)c2ccc(O)cc2o1
IC50 (H9c2): > 79 µM (inactive)
